Laboratory results: ChEMBL document CHEMBL6092201, “Discovery of cyanoguanidine derivatives as biased μ-opioid receptor agonists” (2024)
Activity calls are given as the source filed them.

Key:
Format in all cases: functional
[1] = target: Mu-type opioid receptor (Homo sapiens) (UniProt P35372); assay: Agonist activity at MOR (unknown origin) assessed as beta-arrestin2 recruitment at 50 uM incubated for 90 to 180 mins by chemiluminescence based microplate reader assay; conditions: time 90-180 min
Chain of Mu-type opioid receptor (Homo sapiens) (P35372 whole entry): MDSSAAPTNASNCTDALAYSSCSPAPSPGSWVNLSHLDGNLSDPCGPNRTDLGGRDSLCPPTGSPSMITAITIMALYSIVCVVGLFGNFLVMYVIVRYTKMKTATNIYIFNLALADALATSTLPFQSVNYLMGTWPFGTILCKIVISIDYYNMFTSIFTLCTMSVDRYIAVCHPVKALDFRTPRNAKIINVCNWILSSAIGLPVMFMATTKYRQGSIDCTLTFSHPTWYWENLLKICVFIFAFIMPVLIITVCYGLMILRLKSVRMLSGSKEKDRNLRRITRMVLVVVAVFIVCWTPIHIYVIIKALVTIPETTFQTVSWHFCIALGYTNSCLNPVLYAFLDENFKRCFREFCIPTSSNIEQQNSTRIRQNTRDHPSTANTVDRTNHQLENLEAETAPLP

[2] = target: Mu-type opioid receptor (Homo sapiens) (UniProt P35372); assay: Agonist activity at MOR (unknown origin) assessed as beta-arrestin2 recruitment at 0.1 uM incubated for 90 to 180 mins by chemiluminescence based microplate reader assay relative to control; conditions: time 90-180 min
[3] = target: Mu-type opioid receptor (Homo sapiens) (UniProt P35372); assay: Agonist activity at MOR (unknown origin) assessed as cAMP accumulation at 50 nM relative to control
[4] = target: Mu-type opioid receptor (Homo sapiens) (UniProt P35372); assay: Agonist activity at MOR (unknown origin) assessed as beta-arrestin2 recruitment at 10 uM incubated for 90 to 180 mins by chemiluminescence based microplate reader assay relative to control; conditions: time 90-180 min
Mus musculus = assay: Analgesic activity in Kunming mouse assessed as increase in pain threshold at 10 mg/kg, po (reference value: 0.13 +/- 5.20 sec)
[5] = target: Mu-type opioid receptor (Homo sapiens) (UniProt P35372); assay: Agonist activity at MOR (unknown origin) assessed as beta-arrestin2 recruitment at 1 uM incubated for 90 to 180 mins by chemiluminescence based microplate reader assay relative to control; conditions: time 90-180 min
[6] = target: Mu-type opioid receptor (Homo sapiens) (UniProt P35372); assay: Agonist activity at MOR (unknown origin) assessed as cAMP accumulation at 0.5 nM relative to control

Compound	Activity [1]	Activity [2] [%]	Activity [3] [%]	Activity [4] [%]	Time (Mus musculus) [s]	Activity [5] [%]	Activity [6] [%]
COc1ccc(CN/C(=N\C#N)NC[C@H](Cc2ccc(O)cc2)N(C)C)cc1	inactive	-1	19.8	-0.9	12.41	-0.8	18.5
CC(Cc1cccnc1)N/C(=N\C#N)NC[C@H](Cc1ccccc1)N(C)C (stereo partly specified)	inactive	-1.1	9.5	-0.6	15.75	-0.9	9.3
CN1CC[C@]23c4c5ccc(O)c4O[C@H]2[C@@H](O)C=C[C@H]3[C@H]1C5 [MORPHINE]					22.79		
COc1ccc(CN/C(=N\C#N)NC[C@H](Cc2ccccc2)N(C)C)cc1	inactive	-0.9	14.4	0.9	14.34	-0.6	2.9
CC(Cc1c[nH]cn1)N/C(=N\C#N)NC[C@H](Cc1ccccc1)N(C)C (stereo partly specified)	inactive	-0.5	0.8	2.2	11.38	-0.1	-14.4
CN(C)[C@H](CN/C(=N/C#N)NCCc1ccccc1)Cc1ccccc1	inactive	-0.9	28	2	19.93	-0.2	25.9
CC(Cc1ccncc1)N/C(=N\C#N)NC[C@H](Cc1ccccc1)N(C)C (stereo partly specified)	inactive	-1.1	8.6	-0.5	12.52	-0.9	2.9
CC(Cc1cc[nH]n1)N/C(=N\C#N)NC[C@H](Cc1ccccc1)N(C)C (stereo partly specified)	inactive	-0.4	-15.2	-0.6	15.44	-0.7	-2.5
COc1ccccc1N/C(=N\C#N)NC[C@H](Cc1ccc(O)cc1)N(C)C	inactive	-1.2	32.9	-1	7.76	-1	25.5
CC(Cc1ccc[nH]1)N/C(=N\C#N)NC[C@H](Cc1ccccc1)N(C)C (stereo partly specified)	inactive	-1	24.3	7.9	17.58	-0.4	5.8
COc1ccc2cc(CC(C)N/C(=N\C#N)NC[C@H](Cc3ccccc3)N(C)C)ccc2c1 (stereo partly specified)	inactive	-1	23.6	-1	10.44	-1	15.2
CC(Cc1ccco1)N/C(=N\C#N)NC[C@H](Cc1ccccc1)N(C)C (stereo partly specified)	inactive	-1.3	15.6	-0.8	7.57	-1	9.5
COc1cccc(CCN/C(=N\C#N)NC[C@H](Cc2ccccc2)N(C)C)c1	inactive	-1	10.3	23	12.47	-0.6	3.3
CN(C)[C@H](CN/C(=N/C#N)NCCc1ccccc1)Cc1ccc(O)cc1	inactive	-0.9	4.1	-0.7	6.89	-0.7	8.6
CC(Cc1c[nH]c2ccccc12)N/C(=N\C#N)NC[C@H](Cc1ccccc1)N(C)C (stereo partly specified)	inactive	-0.9	17.7	-0.7	11.63	-0.9	11.1
COc1ccccc1N/C(=N\C#N)NC[C@H](Cc1ccccc1)N(C)C	inactive	-0.8	36.9	15.2	7.34	2	9.5
CN(C)[C@H](CN/C(=N/C#N)NCCc1cccc(F)c1)Cc1ccccc1	inactive	-0.7	14.4	4.8	8.86	-0.3	7.4
CN(C)[C@H](CN/C(=N/C#N)Nc1ccccc1)Cc1ccccc1	inactive	-0.5	23.1	15.9	20.94	1.9	2.1
CC(Cc1cccs1)N/C(=N\C#N)NC[C@H](Cc1ccccc1)N(C)C (stereo partly specified)	inactive	-0.9	37.2	2	21.8	-0.4	12.4
CN(C)[C@H](CN/C(=N/C#N)NCCc1ccc(O)cc1)Cc1ccccc1	inactive	-0.9	19.3	-0.9	6.82	-0.7	13.2
CC(Cc1ccsc1)N/C(=N\C#N)NC[C@H](Cc1ccccc1)N(C)C (stereo partly specified)	inactive	-1	9.1	1.9	22.76	-0.6	-0.8
